Measurements: PMC12082688, “Temporal Distribution of Imidacloprid and Its Metabolites in Laying Hens: An Evaluation of the Potential Impact on Food Safety” (Journal of Agricultural and Food Chemistry, 2025)
Entries after “also recorded” stand apart in the source; their conditions may differ. Like-named read-outs stand apart in the source and are kept apart here.

Assays:
[1] = cited from earlier work
[2] = Distribution of IMI and metabolites in tissues, eggs and feces after a single oral gavage dose, LC-MS/MS; format: in vivo; conditions: for metabolite abundance in tissues: 1 and 10 mg/kg IMI single oral gavage, all sampled tissues; for metabolite concentrations in eggs versus regulatory thresholds: eggs within 24 h postexposure to IMI
Procedure: (§1) Seventy-five, 61-week-old, Hy-line brown hens weighing 1.6–2.4 kg were housed in individual, 22” × 24” × 16” cages with nest box curtains and scratch pads, on two levels. Hens were acclimatized for 1 week on a 16-h light:8-h dark cycle. A wall exhaust fan maintained the temperature between 17–19 °C. A standard layer diet containing corn and soybean meal, 4.9% calcium and 16.5% protein was available ad libitum (Webberville Feed & Grain Co., Webberville, MI, USA). Water was available ad libitum. Hens were weighed and randomly assigned to one of three treatment groups (n = 5 hens/group) that received imidacloprid at 1 and 10% of a reported LD50 for chickens corresponding to 1 and 10 mg/kg of IMI or a placebo treatment (Lafeber Nutristart 1:3 in water; Lafeber Co., Cornell, Il, USA).[14] Birds were fasted overnight. Prior to gavage, crops were palpated to ensure that they were empty.
(§2) Analytical grade (active) imidacloprid powder (ChemService, West Chester, PA, USA) was dissolved in ethanol (10% v/v), mixed with corn oil, and then further dissolved in Lafeber Nutristart (1:3 in water; Lafeber Co., Cornell, Il, USA) to obtain final concentrations of 0.8 or 0.08 mg/mL.[8],[14] Treatments were prepared on the morning of administration, protected from light, kept on ice, and mixed thoroughly prior to administration. The concentrations and purity of IMI were verified before the start of the trial. IMI was administered by oral gavage using a 60-cc syringe and a 10 Fr × 16 in. red rubber urethral feeding catheter. After each administration, the catheter was flushed with 5 mL of water. Birds received a similar volume of treatment or placebo (20–30 mL).
(§3) Approximately 2–3 mL of blood was sampled from the brachial vein at 1, 2, 4, 24, 48, and 168 h postexposure, transferred into 2 mL EDTA tubes, sat at room temperature for 1–2 h, centrifuged at 1200g for 10 min, plasma was transferred into microcentrifuge tubes, and samples were kept at 4 °C until analysis within 1 week of study completion. Birds were humanely euthanized by cervical dislocation (n = 5 hens/treatment/time point). At 1, 4, 24, 48, and 168 h postexposure, approximately 1.0 g from the left pectoralis major, left quadriceps, left liver lobe, coelomic fat pad, spleen, right cranial and middle kidney lobes, and brain (cerebrum, optic lobes, cerebellum, brainstem) were collected, placed in Whirl-Pak sample bags (Nasco Sampling LLC, Madison, WI, USA), and kept at −20 °C until analysis. Whole eggs that were spontaneously laid or near completion in the shell gland were collected at 24 (n = 27), 48 (n = 24), 72 (n = 13), and 168 h (n = 12) after treatment and cracked in half, and yolk and albumen were kept in screw top specimen containers at −20 °C until analysis. […] Doses and time points were based on similar studies done in chickens[8] and Japanese Quail.[7] All animal procedures were approved by the Institutional Animal Care and Use Committee (IACUC) at MSU no. PROTO202300371.
Tissues were prepared for analysis by sectioning 0.5 g of homogeneous tissue (free of connective and vascular tissue) and placing it in a 7 mL Precellys bead tissue homogenization tube. Egg yolk and albumin from individual eggs were homogenized with an Omni International (Kennesaw, GA, USA) 125/TM125-11 hand-held homogenizer with a stainless steel 7 mm generator probe. Similar to tissues, 0.5 g of egg homogenate was placed in a 7 mL Precellys bead tissue homogenization tube. Two milliliters of acetonitrile containing 1 ng/mL of ISTD was added. Tissues were homogenized at room temperature with a Precellys Evolution Homogenizer (Bertin Technologies, Montigny-Le-Bretonneux, France): Speed–4500g, Cycle 2 × 20 s with a 20 s pause between cycles. The homogenized tissues and egg were centrifuged at 5400g for 10 min to pellet solid material at the bottom of the tube. 250 μL of the clear top layer from each tube was transferred to an autosampler vial for LC-MS/MS analysis. […]

[3] = Plasma concentration versus time profile after a single oral gavage dose, LC-MS/MS; format: in vivo, Hy-line brown hens; conditions: for time until plasma concentration below the limit of quantitation: 1 mg/kg single oral gavage, LOQ 0.5 ng/mL; for Tmax: female, Hy-line brown, in vivo
Procedure: as §1, §2, §3
Neonicotinoids were extracted from 200 μL of plasma, which was added to a test tube with […] of 0.5 ng/mL ISTD in acetonitrile. The mixture was vortexed for 40 s until well-mixed and then centrifuged for 5 min at 3000g. The supernatant was removed and filtered through a 0.2 μm PTFE membrane filter into an autosampler vial for LC-MS/MS analysis.
Analysis was performed with a liquid chromatographic-tandem mass spectrometer, an AB Sciex 6500+ ESI-MS/MS (SCIEX, Framingham, MA, USA) interfaced to a Shimadzu LC (Shimadzu Corp, Kyoto, Japan). Chromatography was achieved using the Kinetex F5:2.6 μm (100 mm × 3 mm) column (Phenomenex, Torrance, CA, USA). The column temperature was maintained at 40 °C with a column heater. Injection volume was 10 μL. The mobile phase consisted of 0.1% formic acid in Milli-Q water (mobile phase A) and 0.1% formic acid in acetonitrile (mobile phase B) at a flow rate of 0.5 mL/min. […]

[4] = in vivo, po; cited from earlier work
chickens = conditions: in vivo; cited from earlier work
[5] = IMI equivalents (sum of IMI and 6-chloropyridinyl moiety metabolites) in poultry products versus CFR/EFSA tolerance; design: species or system Hy-line brown hens; conditions: in vivo
Text: The specific absorption, distribution, metabolism, and excretion profile of IMI in laying hens and the presence of IMI and its metabolites in eggs are unknown. Therefore, the primary goal of this study was to evaluate food safety in the context of IMI’s temporal distribution and metabolite profile. To achieve this, IMI and its 6-chloropyridinyl moiety-containing metabolites (IMI-urea, IMI-olefin, desnitro-IMI, 5-OH-IMI, and 6-chloronicotinic acid) were quantitatively measured in blood, tissue, feces, and eggs following a single subclinical dose over time. These concentrations were measured using a liquid chromatography tandem mass spectrometry (LC-MS/MS) method and compared with tolerances established in the Code of Federal Regulations (CFR) and Article 12 of the European Food Safety Authority (EFSA) Regulation No 396/2005.[12],[13]
as §3
Tissues were prepared for analysis by sectioning 0.5 g of homogeneous tissue (free of connective and vascular tissue) and placing it in a 7 mL Precellys bead tissue homogenization tube. Egg yolk and albumin from individual eggs were homogenized with an Omni International (Kennesaw, GA, USA) 125/TM125-11 hand-held homogenizer with a stainless steel 7 mm generator probe. Similar to tissues, 0.5 g of egg homogenate was placed in a 7 mL Precellys bead tissue homogenization tube. Two milliliters of acetonitrile containing 1 ng/mL of ISTD was added. […]

laying hens = experiment: Response to treatment: clinical monitoring, post-mortem examination and daily egg production; format: in vivo; conditions: 1 or 10 mg/kg single oral gavage
Procedure: as §1
Analytical grade (active) imidacloprid powder (ChemService, West Chester, PA, USA) was dissolved in ethanol (10% v/v), mixed with corn oil, and then further dissolved in Lafeber Nutristart (1:3 in water; Lafeber Co., Cornell, Il, USA) to obtain final concentrations of 0.8 or 0.08 mg/mL.[8],[14] Treatments were prepared on the morning of administration, protected from light, kept on ice, and mixed thoroughly prior to administration. […]
Birds were closely monitored postgavage for any adverse reactions. […]

birds = system: birds; design: method as in PMID 32274821; conditions: cited from earlier work
[6] = in vivo; cited from earlier work
layers = conditions: cited from earlier work
[7] = domestic chickens, 15 days after the last exposure following daily exposure for 7 days
[8] = 10 mg/kg single oral gavage, read-out: time of peak concentration in plasma

SMILES: O=[N+]([O-])Nc1nccn1Cc1ccc(Cl)nc1 [IMI-olefin, imidacloprid-olefin]
- presence in feces, liver, muscle, spleen, kidney and brain [1, 7]: detected
- metabolite abundance in tissues [2]: more abundant metabolite observed in most tissues except in the kidney where it was notably absent
- metabolite concentrations in eggs versus regulatory thresholds [2]: exceeding current regulatory thresholds
- time until plasma concentration below the limit of quantitation [3]: ≤ 24 h
- time of peak concentration in plasma ([3]; 10 mg/kg single oral gavage): 4 h

SMILES: O=C(O)c1ccc(O)nc1 [6-OH-NA, 6-hydroxy nicotinic acid]
- presence in fecal matter ([2]; feces collected after IMI single oral gavage): evidence in fecal matter for the formation; also recorded: presence of 6-OH-NA in fecal matter collected at 24 and 48 h post treatment

SMILES: O=C1NCCN1Cc1ccc(Cl)nc1 [IMI-urea, imidacloprid urea]
- presence of metabolite in sample types ([2]; 10 mg/kg IMI single oral gavage): present in the 10 mg/kg treatment group for all sample types except in the liver
- metabolite abundance in tissues [2]: equally abundant in kidney with 5-OH-IMI
- metabolite concentrations in eggs versus regulatory thresholds [2]: exceeding current regulatory thresholds
- time of peak concentration in plasma ([3]; 10 mg/kg single oral gavage): 4 h

SMILES: O=[N+]([O-])/N=C1\NCC(O)N1Cc1ccc(Cl)nc1 (stereo not shown) [5-OH-IMI, 5-hydroxyimidacloprid]
- presence in feces, liver, muscle, spleen, kidney and brain [1, 7]: detected
- metabolite abundance in tissues [2]: metabolized predominantly to 5-OH-IMI
- metabolite concentrations in eggs versus regulatory thresholds [2]: exceeding current regulatory thresholds
- time until plasma concentration below the limit of quantitation [3]: ≤ 24 h
- Tmax [3, 8]: 4 h

SMILES: O=[N+]([O-])NC1=NCCN1Cc1ccc(Cl)nc1 [IMI]
- presence in feces, liver, muscle, spleen, kidney and brain ([1]; in vivo): detected
- residues in liver, pectoral muscle, brain and kidney [4]: detected
- Tmax ([3]; po, 1 mg/kg): ≤ 1 h
- Tmax ([3]; po, 10 mg/kg): 4 h
- adjusted effective dose (ED50) for neurologic signs (chickens): 11.2 mg/kg/day
- IMI equivalents in adipose tissue versus 50 ppb (50 ng/g) threshold [5]: no animal exceeded
- IMI equivalents in brain, liver, spleen and kidney versus threshold (50 ng/g) [5]: surpassed the threshold for most animals
- IMI equivalents in liver and spleen versus threshold (50 ng/g) [5]: remained in excess of the threshold for several animals
- eggs with IMI equivalents exceeding the CFR regulatory threshold of 20 ppb (20 ng/g) [5]: 6 of 10
- gross lesions at post-mortem examination (laying hens): no gross lesions were observed
- clinical signs (birds; 10 mg/kg IMI administration): moderate sedation occurred within minutes
- clinical signs (birds; birds given 1 mg/kg): no outward clinical signs
- time of absorption into the bloodstream [6]: ≤ 1 h
- time of excretion in feces [6]: ≤ 24 h
- LD50 (layers): 104.1 mg/kg

SMILES: N=C1NCCN1Cc1ccc(Cl)nc1 [desnitro-IMI, desnitro imidacloprid]
- Tmax [3, 8]: 4 h
